Columns and labels:
[1] = system: hairless rat skin; assay: Skin observation and histology after patch application in hairless rats; assay type: in vivo; details: skin excised after removing the patch, hematoxylin staining
[2] = system: EpiDerm, a cell culture of normal human derived epidermal keratinocytes; assay: MTT uptake assay of irritation potential on EpiDerm cultures; assay type: cell-based; details: 4 hrs exposure, vehicle 1:1 PBS:EtOH
Experimental: Experiments to assess irritation potential were performed on the binary pairs of library CPEs at the compositions that yielded the maximum ER value in the screening experiments using the methyl thiazol tetrazolium (MTT) uptake assay. Irritation potential was estimated using EpiDermTM (MatTek Co., MA, USA, […].com), a cell culture of normal human derived epidermal keratinocytes. EpiDermTM cultures were stored and handled according to the standard protocol MTT-ET-50 (MatTek Co., MA, USA, […].com). To study the effect of the test formulations on cell viability, cell cultures were exposed to 10 μl of each test formulation for 4 hrs. Each test formulation was analyzed in duplicate. At the end of 4 hrs the assay medium was removed and stored aside at -70° C. for Interleukin-1α assay. The cell cultures were rinsed clear of the test formulations using PBS and incubated with 300 μL of MTT reagent (MatTek Co., MA, USA) for 3 hrs at 37° C. and 5% CO2. At the end of the incubation period the cell cultures were treated with 2 ml of extracting media (provided by MatTek Co) for 2 hrs. 200 μL of this extraction media was then sampled and its optical density (or absorbence) was measured at 570 nm wavelength. The optical absorbance data was then used to calculate the percentage cell viability as recommended in the MTT-ET-50 protocol.

CCCCCCCCCCCCOS(=O)(=O)[O-].[Na+] [SLS, Sodium Lauryl Sulfate]
histology: state of the stratum corneum [1]: completely detached

CCCCCCCC/C=C\CCCCCCCC(=O)O [oleic acid]
irritation potential (IP) [2]: 14.5%
